Values of other authors, collected in patent publication US9221758B2, “Methods of synthesizing pharmaceutical salts of a factor Xa inhibitor” (Millennium Pharmaceuticals, Inc., priority 2006, dated 2015).
Like-named read-outs stand apart in the source and are kept apart here.

Tests used:
[1] = statement in words, information in US2007/0112039
Factor Xa = Factor Xa (Homo sapiens, UniProt P00742); details: statement in words, as discussed in U.S. Pat. No. 6,376,515
Chain of Factor Xa (P00742 235-488 limits assumed): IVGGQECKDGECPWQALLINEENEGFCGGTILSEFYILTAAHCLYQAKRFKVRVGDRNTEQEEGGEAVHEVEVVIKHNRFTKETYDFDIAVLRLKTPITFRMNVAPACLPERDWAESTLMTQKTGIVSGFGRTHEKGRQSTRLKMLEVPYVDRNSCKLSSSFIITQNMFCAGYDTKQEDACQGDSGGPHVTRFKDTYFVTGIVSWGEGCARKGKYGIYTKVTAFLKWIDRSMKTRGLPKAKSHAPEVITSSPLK
Chain of Factor Xa (P00742 41-179 partner limits assumed): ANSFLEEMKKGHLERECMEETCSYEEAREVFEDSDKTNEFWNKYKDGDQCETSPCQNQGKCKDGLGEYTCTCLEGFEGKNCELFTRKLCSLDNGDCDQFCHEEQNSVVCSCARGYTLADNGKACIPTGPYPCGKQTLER

Compound | thermal and hydrolytic stability [1] | thermal and hydrolytic stability ([1]; listed as maleate salt) | Xa inhibitor potency (Factor Xa)
COc1ccc(NC(=O)c2ccc(C(=N)N(C)C)cc2)c(C(=O)Nc2ccc(Cl)cn2)c1 | excellent | best thermal and hydrolytic stability observed | 
COc1ccc(NC(=O)c2ccc(C(=N)N(C)C)cc2)c(C(=O)Nc2ccc(Cl)cn2)c1 [compound of Formula I] |  |  | potent Xa inhibitor
